Source: patent publication US11208407B2, “Substituted phenyl compounds as indoleamine 2,3-dioxygenase (IDO) inhibitors” (Merck Sharp & Dohme Corp., priority 2017, dated 2021)

How the values were obtained:
IDO1 [1] = molecular target: T1, IDO1 (Homo sapiens, UniProt P14902); test: IDO1 Cellular Assay in HeLa Cells Stimulated with IFNγ; type: cell-based; conditions: IFNγ 100 ng/mL, 300 uM L-tryptophan, about 48 hours, read-out: IDO HeLa Cell Assay, IC50
Description: Biological Assays IDO1 Cellular Assay in HeLa Cells Stimulated with IFNγ
HeLa cells were cultured in complete HeLa culture medium (90% EMEM, 10% heat-inactivated fetal bovine serum) and expanded to about 1×10^9 cells. The cells were then collected and frozen down at 1×10^7 cells/vial in 1 mL frozen medium (90% complete HeLa culture medium, 10% DMSO).
Compounds to be tested were serially diluted in ten 3-fold steps in DMSO starting from 10 mM DMSO stocks in Echo low volume plate(s). Compound dilutions or DMSO alone were then dispensed from the dilution plate(s) into Greiner black 384-well assay plate(s) (catalog #781086, 50 nL/well) using an Echo 550 acoustic liquid handler (Labcyte).
Frozen HeLa cells were thawed and transferred into HeLa assay medium (99% complete HeLa culture medium, 1% Pen/Strep) with 20 mL medium/vial of cells. The cells were spun down at 250 g in a table top centrifuge for 5 min and suspended in same volume of HeLa assay medium. The cells were then counted and adjusted to a density of 2×10^5 cells/mL in HeLa assay medium. Sterile L-tryptophan were added to the cells with final concentration of 300 uM L-tryptophan. A small aliquot (2 mL/plate) of HeLa cells were set aside and were not treated with IFNγ, to serve as the Max-E control.
HeLa cells with and without IFNγ were dispensed to the respective wells of 384-well assay plates containing the compounds. The plates were incubated for about 48 hours at a 37° C., 5% CO2 incubator. Afterwards, 12 μL of 0.5 M methyl isonipecotate in dimethyl sulfoxide were added into each well and the plates were sealed and incubated at 37° C. without CO2 overnight. The plates were centrifuged for 1 min at 200×g. The resulting fluorescence was measured in a Spectramax plate reader (Molecular Devices) with a 400 nm excitation filter and a 510 nm emission filter.
The fluorescence intensity of each well was corrected for the background observed in wells with non-IFNγ-treated cells and was expressed as a fraction of the intensity observed in wells of IFNγ-treated cells and DMSO only. Potencies were calculated by linear least squares fit to the four parameter logistic IC50 equation.

IDO1 [2] = molecular target: T1, IDO1; test: IDO1 Human Whole Blood Assay; type: cell-based; design: Human whole blood was drawn in sodium heparin coated tubes from healthy internal donors; from tissue; host or cells: Human whole blood from healthy donors, stimulated with LPS and IFNγ; conditions: LPS and IFNγ 100 ng/mL, 18 h, kynurenine by LC/MS/MS
Description: IDO1 Human Whole Blood Assay
Compounds to be tested were serially diluted in ten 3-fold steps in DMSO starting from 10 mM. 3 µL of compound dilutions or DMSO alone were then dispensed from the dilution plate into a polypropylene 96-well assay plate containing 97 µL of RPMI medium using an Echo 555 acoustic liquid handler (Labcyte). LPS (lipopolysaccharide) and IFNγ was prepared in RPMI to a 10× of final conc. (1000 ng/mL), final concentration is 100 ng/mL.
Human whole blood was drawn in sodium heparin coated tubes from healthy internal donors. 240 µL of blood was transferred to each of the wells of a v-bottom 96 well plate. 30 µL of compound was transferred from intermediate dilution plate, and incubated for 15 min. 30 μL from stimulants was then transferred to blood and mixed thoroughly. Plate was covered with breathable membrane and incubated at 37° C. for overnight (18 h).
On day 2, isotope labeled standard solutions of kunurenine and tryptophan was made in water at 10× concentration and 30 µL was added to the blood at 3 µM final concentration. The assay plates were centrifuged at 300×G for 10 min with no brake to separate plasma from red blood cells. 60 µL of plasma samples was removed without disturbing red blood cells. Plasma was diluted with RPMI medium in 1:1 ratio and proteins were precipitated out with two volumes of Acetonitrile. The plates were centrifuged at 4000×G for 60 min. 20 µL of supernatant was carefully transferred to a 384 well plate containing 40 µL of 0.1% formic acid in water and analyzed by LC/MS/MS.
LC/MS/MS analyses were performed using Thermo Fisher's LX4-TSQ Quantum Ultra system. This system consists of four Agilent binary high-performance liquid chromatography (HPLC) pumps and a TSQ Quantum Ultra triple quadrupole MS/MS instrument. For each sample, 5 µL were injected onto an Atlantis T3 column (2.1 mm×150 mm, 3 µm particle size) from Waters. The mobile phase gradient pumped at 0.8 mL/min was used to elute the analytes from the column at 25° C. The elution started at 0% B increasing linearly to 25% B at 6.5 min, holding at 25% for 1 min, re-equilibrating to 10 min. Mobile phase A consisted of 0.1% formic acid in water. Mobile phase B consisted of 0.1% of formic acid in acetonitrile. Data was acquired in positive mode using a HESI interface. The operational parameters for the TSQ Quantum Ultra instrument were a spray voltage of 4000 V, capillary temperature of 380° C., vaporizer temperature 400° C., shealth gas 60 arbitrary units, Aux gas 20 arbitrary units, tube lens 85 and collision gas 1.2 mTorr. SRM (selected-reaction monitoring) chromatograms of kynurenine (Q1: 209.2>Q3:94.0) and internal standard (Q1: 215.3>Q3:98.2) were collected for 90 sec. The peak area was integrated by Xcalibur Quan software. The ratios between the kynurenine generated in the reaction and 2D6-Kynurenine spiked-in internal standard were used to generate percentage inhibition and IC50 values. Compounds were titrated and IC50's were calculated by 4 parameter sigmoidal curve fitting formula.

T1 sequence (P14902 whole entry): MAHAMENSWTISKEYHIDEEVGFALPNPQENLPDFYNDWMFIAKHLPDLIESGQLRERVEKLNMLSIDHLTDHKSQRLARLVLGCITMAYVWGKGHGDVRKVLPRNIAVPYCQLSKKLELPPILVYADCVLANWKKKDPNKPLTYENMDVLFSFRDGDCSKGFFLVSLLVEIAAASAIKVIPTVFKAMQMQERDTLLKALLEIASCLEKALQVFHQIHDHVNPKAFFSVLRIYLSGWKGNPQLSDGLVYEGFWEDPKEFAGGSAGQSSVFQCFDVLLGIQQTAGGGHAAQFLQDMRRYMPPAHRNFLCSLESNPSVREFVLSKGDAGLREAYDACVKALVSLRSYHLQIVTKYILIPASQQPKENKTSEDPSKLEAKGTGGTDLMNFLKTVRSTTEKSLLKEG

Row | SMILES | IC50 (IDO1 [1]) [nM] | IC50 (IDO1 [2]) [nM]
1 | N#Cc1cccc(C(=O)Nc2ccc(C3(c4nc5cc(Br)cnc5[nH]4)CCC3)cc2F)c1 [Example 16, N-(4-(1-(6-bromo-3H-imidazo[4,5-b]pyridin-2-yl)cyclobutyl)-2-fluorophenyl)-3-cyanobenzamide] | 1.17 | 35.5
2 | Cc1cc(OC(F)F)ncc1-c1ccc(C2(c3nc4cc(C(F)(F)F)cnc4[nH]3)COC2)cc1 [Example 44, 2-(3-{4-[6-(difluoromethoxy)-4-methylpyridin-3-yl]phenyl}oxetan-3-yl)-6-(trifluoromethyl)-3H-imidazo[4,5-b]pyridine] | 2.22 | 1660
3 | O=C(Nc1ccc(C2(c3nc4ncc(Cl)cc4[nH]3)CC(F)(F)C2)cc1)c1cccc(Cl)c1 [Example 24, 3-Chloro-N-(4-(1-(6-chloro-1H-imidazo[4,5-b]pyridin-2-yl)-3,3-difluorocyclobutyl)phenyl)benzamide] | 1.85 | 120
4 | N#Cc1cccc(C(=O)Nc2ccc(C3(c4nc5cc(C#N)cnc5[nH]4)CCC3)cc2F)c1 [Example 17, 3-Cyano-N-(4-(1-(6-cyano-3H-imidazo[4,5-b]pyridin-2-yl)cyclobutyl)-2-fluorophenyl)benzamide] | 1.71 | 118
5 | OCc1cc(C(F)(F)F)ncc1-c1ccc(C2(c3nc4cc(C(F)(F)F)cnc4[nH]3)COC2)cc1 [Example 45, [2-(trifluoromethyl)-5-(4-{3-[6-(trifluoromethyl)-3H-imidazo[4,5-b]pyridin-2-yl]oxetan-3-yl}phenyl)pyridin-4-yl]methanol] | 15.4 | 2700
6 | OCc1cc(C(F)(F)F)ncc1-c1ccc(C2(c3nc4ncc(Cl)cc4[nH]3)CCC2)cc1 [Example 46, [5-{4-[1-(6-chloro-1H-imidazo[4,5-b]pyridin-2-yl)cyclobutyl]phenyl}-2-(trifluoromethyl)pyridin-4-yl]methanol] | 2.28 | 238
7 | N#Cc1cccc(C(=O)Nc2ccc(C3(c4nc5ccc(Cl)cc5[nH]4)CC(F)C3)cc2)c1 (stereo not drawn) [Example 25, N-(4-(1-(6-chloro-1H-benzo[d]imidazol-2-yl)-3-fluorocyclobutyl)phenyl)-3-cyanobenzamide] | 1.07 | 47.6
8 | N#Cc1cccc(C(=O)Nc2ccc(C3(c4nc5ncc(C#N)cc5[nH]4)CCC3)cc2)c1 [Example 3, 3-Cyano-N-(4-(1-(6-cyano-1H-imidazo[4,5-b]pyridin-2-yl)cyclobutyl)phenyl)benzamide] | 3.97 | 75.1
9 | O=C(Nc1cccc(Cl)c1)c1ccc(C2(c3nc4ncc(C(F)(F)F)cc4[nH]3)CCC2)cc1 [Example 27, N-(3-chlorophenyl)-4-(1-(6-(trifluoromethyl)-1H-imidazo[4,5-b]pyridin-2-yl)cyclobutyl)benzamide] | 1.48 | 169
10 | N#Cc1cccc(C(=O)Nc2ccc(C3(c4nc5ccc(Cl)cc5[nH]4)COC3)cc2)c1 [Example 11, N-(4-(3-(6-chloro-1H-benzo[d]imidazol-2-yl)oxetan-3-yl)phenyl)-3-cyanobenzamide] | 1.56 | 22.9
11 | N#Cc1cccc(C(=O)Nc2ccc(C3(c4nc5ncc(Cl)cc5[nH]4)CCC3)cc2)c1 [Example 10, N-{4-[1-(6-chloro-1H-imidazo[4,5-b]pyridin-2-yl)cyclobutyl]phenyl}-3-cyanobenzamide] | 3.25 | 132
12 | N#Cc1cccc(C(=O)Nc2ccc(C3(c4nc5ccc(C#N)cc5[nH]4)CC(F)C3)cc2)c1 (stereo not drawn) [Example 26, 3-Cyano-N-(4-(1-(6-cyano-1H-benzo[d]imidazol-2-yl)-3-fluorocyclobutyl)phenyl)benzamide] | 1.84 | 182
13 | Cc1cc(C2CC2)ncc1-c1ccc(C2(c3nc4ncc(C#N)cc4[nH]3)CCC2)cc1 [Example 39, 2-(1-(4-(6-Cyclopropyl-4-methylpyridin-3-yl)phenyl)cyclobutyl)-1H-imidazo[4,5-b]pyridine-6-carbonitrile] | 3.6 | 182
14 | N#Cc1cccc(C(=O)Nc2ccc(C3(c4nc5cc(Cl)cnc5[nH]4)CCC3)cc2F)c1 [Example 18, N-{4-[1-(6-chloro-3H-imidazo[4,5-b]pyridin-2-yl)cyclobutyl]-2-fluorophenyl}-3-cyanobenzamide] | 0.736 | 103
15 | Cc1cc(OC(F)F)nc(C)c1-c1ccc(C2(c3nc4cc(Cl)ccc4[nH]3)CCC2)cc1 [Example 48, 5-chloro-2-(1-{4-[6-(difluoromethoxy)-2,4-dimethylpyridin-3-yl]phenyl}cyclobutyl)-1H-benzimidazole] | 2.44 | 130
16 | O=C(Nc1ccc(C2(c3nc4ncccc4[nH]3)CCC2)cc1)c1cccc(Cl)c1 [Example 5, N-(4-(1-(1H-imidazo[4,5-b]pyridin-2-yl)cyclobutyl)phenyl)-3-chlorobenzamide] | 2.85 | 192
17 | O=C(Nc1ccc(C2(c3nc4ncc(C(F)(F)F)cc4[nH]3)CCC2)cc1)c1cccc(Cl)c1 [Example 1, 3-Chloro-N-(4-(1-(6-(trifluoromethyl)-1H-imidazo[4,5-b]pyridin-2-yl)cyclobutyl)phenyl)benzamide] | 1.53 | 74.7
18 | N#Cc1cccc(C(=O)Nc2ccc(C3(c4nc5cc(C(F)(F)F)cnc5[nH]4)CCC3)cc2F)c1 [Example 19, 3-cyano-N-(2-fluoro-4-{1-[6-(trifluoromethyl)-3H-imidazo[4,5-b]pyridin-2-yl]cyclobutyl}phenyl) benzamide] | 0.944 | 43.7
19 | CC(C)(O)c1cc(C(F)(F)F)ncc1-c1ccc(C2(c3nc4cc(Cl)ccc4[nH]3)CCC2)cc1 [Example 49, 2-[5-{4-[1-(5-chloro-1H-benzimidazol-2-yl)cyclobutyl]phenyl}-2-(trifluoromethyl)pyridin-4-yl]propan-2-ol] | 1.7 | 72.9
20 | OCc1cc(OC(F)F)ncc1-c1ccc(C2(c3nc4cc(Cl)ccc4[nH]3)CCC2)cc1 [Example 47, [5-{4-[1-(5-chloro-1H-benzimidazol-2-yl)cyclobutyl]phenyl}-2-(difluoromethoxy)pyridin-4-yl]methanol] | 3.94 | 191
21 | OCc1cc(C(F)(F)F)ncc1-c1ccc(C2(c3nc4ncc(Cl)cc4[nH]3)COC2)cc1 [Example 50, (5-(4-(3-(6-chloro-1H-imidazo[4,5-b]pyridin-2-yl)oxetan-3-yl)phenyl)-2-(trifluoromethyl)pyridin-4-yl)methanol] | 3.03 | 4040
